# Reference: EPA's ToxRefDB 2
# How the values were obtained:
# rat [1] = conditions: Combined chronic toxicity/carcinogenicity, wistar, Inhalation, Whole-Body, dose end: 125 week, group: systemic
# rat [2] = conditions: Neurotoxicity screening battery; fischer; Inhalation; Whole-Body; dose end: 24 week; group: cannot be grouped; systemic / in life observation / body weight / body weight
# rat [3] = conditions: Prenatal developmental toxicity study, fischer, Inhalation, Whole-Body, dose end: 15 GD
# rat [4] = conditions: Multigenerational reproductive toxicity study; fischer; Inhalation; Whole-Body; dose end: 2 generation; group: parental; systemic / in life observation / body weight / body weight
# rat [5] = conditions: Subchronic oral toxicity in rodents, other, Feed, dose end: 90 day, group: systemic
# dog [6] = conditions: Subchronic oral toxicity in nonrodent, beagle, Capsule, dose end: 90 day, group: systemic
# rat [7] = conditions: Prenatal developmental toxicity study; wistar; Oral; Gavage/Intubation; dose end: 18 GD; group: developmental; systemic / organ weight / epididymis / absolute + systemic / organ weight / liver / absolute
# rat [8] = conditions: Prenatal developmental toxicity study; wistar; Oral; Gavage/Intubation; dose end: 18 GD; group: developmental; systemic / organ weight / epididymis / absolute + systemic / organ weight / liver / absolute; remark: listed apart in the source
# rat [9] = conditions: Subchronic oral toxicity in rodents, sprague dawley, Feed, dose end: 90 day, group: systemic
# dog [10] = conditions: Subchronic oral toxicity in nonrodent, beagle, Feed, dose end: 90 day, group: systemic
# mouse [11] = conditions: Carcinogenicity; cd1; Oral; Feed; dose end: 79 week; group: systemic; systemic / hematology / leukocyte (wbc) count differential / leukocyte (wbc) + systemic / hematology / lymphocyte / lymphocyte + systemic / …
# dog [12] = conditions: Chronic toxicity; beagle; Oral; Feed; dose end: 12 month; group: systemic; systemic / clinical chemistry / beta globulin / beta globulin + systemic / hematology / erythrocyte (rbc) count differential / erythrocyte (…
# rat [13] = conditions: Multigenerational reproductive toxicity study; long evans; Oral; Gavage/Intubation; dose end: 1 generation; group: offspring; systemic / organ weight / vagina / absolute + systemic / organ weight / vagina / relative to body weight
# rat [14] = conditions: Chronic toxicity; fischer; Oral; Water; dose end: 104 week; group: systemic; systemic / pathology microscopic / mammary gland / fibroadenoma
# mouse [15] = conditions: Subchronic oral toxicity in rodents, b6c3f1, Water, dose end: 13 week, group: systemic
# rat [16] = conditions: Subchronic oral toxicity in rodents, fischer, Water, dose end: 25 week, group: systemic, systemic / in life observation / body weight / body weight gain
# rat [17] = conditions: Sub-acute repeat dose toxicity; wistar; Injection; Intravenous; dose end: 28 day; group: systemic; systemic / clinical chemistry / calcium / calcium
# mouse [18] = conditions: Chronic toxicity, b6c3f1, Oral, Water, dose end: 104 week, group: systemic
# rat [19] = conditions: Combined chronic toxicity/carcinogenicity; fischer; Oral; Feed; dose end: 365 day; group: systemic; systemic / in life observation / body weight / body weight
# mouse [20] = conditions: Combined chronic toxicity/carcinogenicity; other; Oral; Feed; dose end: 365 day; group: systemic; systemic / pathology microscopic / blood / lymphoma malignant
# rat [21] = conditions: Prenatal developmental toxicity study; sprague dawley; Oral; Feed; dose end: 15 GD; group: maternal; systemic / in life observation / body weight / body weight gain + systemic / in life observation / food consumption / food consumption
# mouse [22] = conditions: Carcinogenicity, b6c3f1, Oral, Feed, dose end: 24 month
# rat [23] = conditions: Prenatal developmental toxicity study, sprague dawley, Oral, Gavage/Intubation, dose end: 15 GD
# rat [24] = conditions: Carcinogenicity; fischer; Oral; Feed; dose end: 103 week; group: systemic; systemic / in life observation / body weight / body weight + systemic / pathology microscopic / eye / cataract + systemic / pathology …
# rat [25] = conditions: Subchronic oral toxicity in rodents, fischer, Feed, dose end: 13 week, group: systemic
# mouse [26] = conditions: Carcinogenicity; b6c3f1; Oral; Feed; dose end: 103 week; group: systemic; systemic / in life observation / body weight / body weight
# mouse [27] = conditions: Sub-acute repeat dose toxicity; b6c3f1; Oral; Feed; dose end: 14 day; group: systemic; systemic / in life observation / clinical signs / fur (altered appearance) + systemic / in life observation / mortality / mortality
# rat [28] = conditions: Sub-acute repeat dose toxicity; fischer; Oral; Feed; dose end: 14 day; group: systemic; systemic / in life observation / body weight / body weight gain + systemic / in life observation / clinical signs / urogenital staining + …
# [29] = systemic / in life observation / body weight / body weight
# [30] = group: developmental, developmental / developmental malformation / bone / supernumerary
# [31] = group: maternal, systemic / in life observation / body weight / body weight gain + systemic / in life observation / food consumption / food consumption
# [32] = group: maternal, systemic / in life observation / body weight / body weight gain + systemic / in life observation / food consumption / food consumption + …
# [33] = systemic / in life observation / body weight / body weight gain
# [34] = systemic / in life observation / body weight / body weight gain + systemic / pathology microscopic / kidney / casts + systemic / pathology …
# [35] = systemic / clinical chemistry / [other] / [other] + systemic / clinical chemistry / bilirubin / total bilirubin + systemic / clinical …
# [36] = systemic / in life observation / body weight / body weight gain + systemic / organ weight / spleen / relative to body weight + systemic / …
# [37] = systemic / in life observation / body weight / body weight gain + systemic / in life observation / mortality / mortality + systemic / …
# [38] = systemic / pathology microscopic / blood / lymphoma malignant
# [39] = systemic / pathology microscopic / blood / lymphoma malignant + systemic / in life observation / body weight / body weight
# [40] = group: cholinesterase, cholinesterase / cholinesterase / cholinesterase / brain cholinesterase (che)
# [41] = group: cholinesterase, cholinesterase / cholinesterase / cholinesterase / brain cholinesterase (che) + cholinesterase / cholinesterase / cholinesterase / plasma …
# [42] = group: systemic, systemic / in life observation / clinical signs / convulsions + systemic / pathology gross / lymph node / enlarged + systemic / pathology …
# [43] = group: developmental, systemic / in life observation / body weight / fetal weight
# [44] = systemic / in life observation / body weight / body weight gain + systemic / in life observation / clinical signs / skin discoloration + …
smiles,measurement,setting,value
"CC1CO1 (centres undefined) [1,2-Propylene oxide]",LEL,rat [1]; [29],30 ppm
same,NEL,rat [1]; [29],< 30 ppm
same,LOAEL,rat [1]; systemic / pathology microscopic / nose / [other] + systemic / pathology microscopic / nose / hyperplasia,100 ppm
same,NOAEL,rat [1]; systemic / pathology microscopic / nose / [other] + systemic / pathology microscopic / nose / hyperplasia + systemic / pathology microscopic…,30 ppm
same,LEL,rat [2],100 ppm
same,LOAEL,rat [2],> 300 ppm
same,NEL,rat [2],30 ppm
same,NOAEL,rat [2],≥ 300 ppm
same,LEL,rat [3]; [30],500 ppm
same,LOAEL,rat [3]; [30],500 ppm
same,NEL,rat [3]; [30],300 ppm
same,NOAEL,rat [3]; [30],300 ppm
same,LOAEL,rat [3]; [31],500 ppm
same,LEL,rat [3]; [32],500 ppm
same,NEL,rat [3]; [32],300 ppm
same,NOAEL,rat [3]; [32],300 ppm
same,LEL,rat [4],30 ppm
same,LOAEL,rat [4],> 300 ppm
same,NEL,rat [4],< 30 ppm
same,NOAEL,rat [4],≥ 300 ppm
CCc1occc(=O)c1O [2-Ethyl-3-hydroxy-4H-pyran-4-one],LEL,rat [5]; [33],500 mg/kg/day
same,LOAEL,rat [5]; [34],> 1000 mg/kg/day
same,NEL,rat [5]; [34],250 mg/kg/day
same,NOAEL,rat [5]; [34],≥ 1000 mg/kg/day
same,LOAEL,dog [6]; [35],> 500 mg/kg/day
same,NOAEL,dog [6]; [35],≥ 500 mg/kg/day
same,NEL,dog [6]; systemic / clinical chemistry / bilirubin / total bilirubin + systemic / hematology / anemia / anemia - hemolytic + systemic / pathology …,125 mg/kg/day
same,LEL,dog [6]; systemic / pathology microscopic / liver / hemosiderosis,250 mg/kg/day
CCCCCCCCCc1ccc(O)cc1 [4-Nonylphenol],LEL,rat [7],15 mg/kg/day
same,LOAEL,rat [7],> 75 mg/kg/day
same,NEL,rat [7],3 mg/kg/day
same,NOAEL,rat [7],≥ 75 mg/kg/day
same,LEL,rat [8],15 mg/kg/day
same,LOAEL,rat [8],> 75 mg/kg/day
same,NEL,rat [8],3 mg/kg/day
same,NOAEL,rat [8],≥ 75 mg/kg/day
COc1ccc(-c2ccccc2)cc1NNC(=O)OC(C)C [Bifenazate],LEL,rat [9]; systemic / clinical chemistry / protein / protein,13.8 mg/kg/day
same,NEL,rat [9]; systemic / clinical chemistry / protein / protein + systemic / hematology / erythrocyte (rbc) count differential / erythrocyte (rbc) + …,2.7 mg/kg/day
same,LOAEL,rat [9]; [36],16.3 mg/kg/day
same,NOAEL,rat [9]; [36],3.2 mg/kg/day
same,LOAEL,dog [10]; systemic / hematology / mean corpuscular (cell) volume (mcv) / mean corpuscular (cell) volume (mcv) + systemic / hematology / mean …,10.4 mg/kg/day
same,LEL,dog [10]; [33],0.9 mg/kg/day
same,NEL,dog [10]; [33],< 0.9 mg/kg/day
same,NOAEL,dog [10]; systemic / in life observation / body weight / body weight gain + systemic / hematology / mean corpuscular (cell) volume (mcv) / mean …,0.9 mg/kg/day
same,LEL,mouse [11],15.4 mg/kg/day
same,LOAEL,mouse [11],15.4 mg/kg/day
same,NEL,mouse [11],1.5 mg/kg/day
same,NOAEL,mouse [11],1.5 mg/kg/day
same,LEL,dog [12],8.95 mg/kg/day
same,LOAEL,dog [12],8.95 mg/kg/day
same,NEL,dog [12],1.01 mg/kg/day
same,NOAEL,dog [12],1.01 mg/kg/day
[O][Cl+][O-] [Chlorine dioxide],LEL,rat [13],10 mg/kg/day
same,LOAEL,rat [13],> 10 mg/kg/day
same,NEL,rat [13],5 mg/kg/day
same,NOAEL,rat [13],≥ 10 mg/kg/day
O=C1CCCCC1 [Cyclohexanone],LEL,rat [14],325 mg/kg/day
same,LOAEL,rat [14],> 325 mg/kg/day
same,NEL,rat [14],165 mg/kg/day
same,NOAEL,rat [14],≥ 325 mg/kg/day
same,LEL,mouse [15]; [33],3330 mg/kg/day
same,LOAEL,mouse [15]; [37],> 6270 mg/kg/day
same,NEL,mouse [15]; [37],1730 mg/kg/day
same,NOAEL,mouse [15]; [37],≥ 6270 mg/kg/day
same,LEL,rat [16],325 mg/kg/day
same,LOAEL,rat [16],> 325 mg/kg/day
same,NEL,rat [16],235 mg/kg/day
same,NOAEL,rat [16],≥ 325 mg/kg/day
same,LEL,rat [17],100 mg/kg/day
same,LOAEL,rat [17],> 100 mg/kg/day
same,NEL,rat [17],50 mg/kg/day
same,NOAEL,rat [17],≥ 100 mg/kg/day
same,LEL,mouse [18]; [38],867 mg/kg/day
same,NEL,mouse [18]; [38],< 867 mg/kg/day
same,LOAEL,mouse [18]; [39],> 3330 mg/kg/day
same,NOAEL,mouse [18]; [39],≥ 3330 mg/kg/day
CCCCCC(N)=O [Hexanamide],LEL,rat [19],750 mg/kg/day
same,LOAEL,rat [19],> 750 mg/kg/day
same,NEL,rat [19],< 750 mg/kg/day
same,NOAEL,rat [19],≥ 750 mg/kg/day
same,LEL,mouse [20],1500 mg/kg/day
same,LOAEL,mouse [20],> 1500 mg/kg/day
same,NEL,mouse [20],< 1500 mg/kg/day
same,NOAEL,mouse [20],≥ 1500 mg/kg/day
COP(=S)(OC)SCN1C(=O)c2ccccc2C1=O [Phosmet],LEL,rat [21],27 mg/kg/day
same,LOAEL,rat [21],> 29 mg/kg/day
same,NEL,rat [21],22 mg/kg/day
same,NOAEL,rat [21],≥ 29 mg/kg/day
same,LOAEL,mouse [22]; [40],1 mg/kg/day
same,NOAEL,mouse [22]; [40],< 1 mg/kg/day
same,LEL,mouse [22]; [41],1 mg/kg/day
same,NEL,mouse [22]; [41],< 1 mg/kg/day
same,LOAEL,"mouse [22]; group: systemic, systemic / in life observation / clinical signs / convulsions",4 mg/kg/day
same,LEL,mouse [22]; [42],1 mg/kg/day
same,NEL,mouse [22]; [42],< 1 mg/kg/day
same,NOAEL,"mouse [22]; group: systemic, systemic / in life observation / clinical signs / convulsions + systemic / pathology microscopic / liver / hepatocellular adenoma + systemic…",1 mg/kg/day
same,LEL,rat [23]; [43],5 mg/kg/day
same,LOAEL,rat [23]; [43],> 30 mg/kg/day
same,NEL,rat [23]; [43],< 5 mg/kg/day
same,NOAEL,rat [23]; [43],≥ 30 mg/kg/day
same,LEL,rat [23]; [31],20 mg/kg/day
same,LOAEL,rat [23]; [32],> 30 mg/kg/day
same,NEL,rat [23]; [32],10 mg/kg/day
same,NOAEL,rat [23]; [32],≥ 30 mg/kg/day
CCCOC(=O)c1cc(O)c(O)c(O)c1 [Propyl gallate],LEL,rat [24],300 mg/kg/day
same,LOAEL,rat [24],300 mg/kg/day
same,NEL,rat [24],< 300 mg/kg/day
same,NOAEL,rat [24],< 300 mg/kg/day
same,LEL,rat [25]; [33],625 mg/kg/day
same,LOAEL,rat [25]; [33],625 mg/kg/day
same,NEL,rat [25]; [44],300 mg/kg/day
same,NOAEL,rat [25]; [44],300 mg/kg/day
same,LEL,mouse [26],900 mg/kg/day
same,LOAEL,mouse [26],900 mg/kg/day
same,NEL,mouse [26],< 900 mg/kg/day
same,NOAEL,mouse [26],< 900 mg/kg/day
same,LEL,mouse [27],7500 mg/kg/day
same,LOAEL,mouse [27],> 15000 mg/kg/day
same,NEL,mouse [27],3750 mg/kg/day
same,NOAEL,mouse [27],≥ 15000 mg/kg/day
same,LEL,rat [28],2500 mg/kg/day
same,LOAEL,rat [28],> 5000 mg/kg/day
same,NEL,rat [28],1250 mg/kg/day
same,NOAEL,rat [28],≥ 5000 mg/kg/day
